The text below walks through data of ChEMBL document CHEMBL5154706, “Synthesis of lathyrane diterpenoid nitrogen-containing heterocyclic derivatives and evaluation of their anti-inflammatory activities” (Bioorg Med Chem, 2022).

Active and inactive are the calls of the source. No cut-off for these calls is given here. A value given as a limit tells only on which side of the number the result lay.

In one test the test system is RAW264.7. Put plainly: Antiinflammatory activity against mouse RAW264.7 cells assessed as inhibition of LPS-induced NO production preincubated for 3 hrs followed by LPS stimulation and measured after 24 hrs by Griess reagent based assay. The format is functional, cell-based.
Conditions: not given
Broadly, the IC50 is the concentration that inhibits the measured activity by half. For `C/C1=C\[C@@H]2[C@H](CC[C@]3(CO3)[C@H](OC(=O)CCC(=O)OCc3ccc(COc4no[n+]([O-])c4S(=O)(=O)c4ccccc4)cc3)[C@H]3[C@@H](O)[C@@H](C)C[C@]3(O)C1=O)C2(C)C`, the IC50 came to 2.61 µM.
The same measure, in the same setting: as for `C=C1CC[C@H]2[C@@H](/C=C(\C)C(=O)[C@@]3(O)C[C@H](C)[C@H](O)[C@@H]3[C@H]1OC(=O)c1cnc(NC(C)=O)s1)C2(C)C`, the figure is over 20 µM; as for `C=C1CC[C@H]2[C@@H](/C=C(\C)C(=O)[C@@]3(O)C[C@H](C)[C@H](O)[C@@H]3[C@H]1OC(=O)CCC(=O)OCc1ccc(COc3no[n+]([O-])c3S(=O)(=O)c3ccccc3)cc1)C2(C)C`, 5.36 µM.
For the compound `C=C1CC[C@H]2[C@@H](/C=C(\C)C(=O)[C@@]3(O)C[C@H](C)[C@H](O)[C@@H]3[C@H]1OC(=O)CCC(=O)OCCCCOc1no[n+]([O-])c1S(=O)(=O)c1ccccc1)C2(C)C`, the IC50 was determined as 1.55 µM.
The same measure, in the same setting: with `CCn1cc(C(=O)O[C@@H]2[C@H]3[C@@H](O)[C@@H](C)C[C@]3(O)C(=O)/C(C)=C/[C@@H]3[C@H](CC[C@]24CO4)C3(C)C)c(-c2ccc(C)cc2)n1` the figure was over 20 µM.
The same measure, in the same setting: with `C/C1=C\[C@@H]2[C@H](CC[C@]3(CO3)[C@H](OC(=O)c3cnc(NC(=O)c4ccccc4)s3)[C@H]3[C@@H](O)[C@@H](C)C[C@]3(O)C1=O)C2(C)C` the figure was 10.9 µM.
Same read-out and setting: as for `C=C1CC[C@H]2[C@@H](/C=C(\C)C(=O)[C@@]3(O)C[C@H](C)[C@H](O)[C@@H]3[C@H]1OC(=O)c1cn(-c3ccccc3)nc1-c1ccc(F)cc1)C2(C)C`, the figure is 10.8 µM; as for `C=C1CC[C@H]2[C@@H](/C=C(\C)C(=O)[C@@]3(OC(C)=O)C[C@H](C)[C@H](OC(=O)c4ccccc4)[C@@H]3[C@H]1OC(C)=O)C2(C)C`, 8.06 µM.
For `CC(=O)Nc1ncc(C(=O)O[C@@H]2[C@H]3[C@@H](O)[C@@H](C)C[C@]3(O)C(=O)/C(C)=C/[C@@H]3[C@H](CC[C@]24CO4)C3(C)C)s1`, the IC50 is over 20 µM.
Still for that read-out and setting: with `CCn1cc(C(=O)O[C@@H]2[C@H]3[C@@H](O)[C@@H](C)C[C@]3(O)C(=O)/C(C)=C/[C@@H]3[C@H](CC[C@]24CO4)C3(C)C)c(-c2ccc(N(C)C)cc2)n1` the figure was over 20 µM.
In the case of `C/C1=C\[C@@H]2[C@H](CC[C@]3(CO3)[C@H](OC(=O)c3cnc(NC(=O)/C=C/c4ccccc4)s3)[C@H]3[C@@H](O)[C@@H](C)C[C@]3(O)C1=O)C2(C)C`, the IC50 was over 20 µM.
On the same count and under the same terms, with `C/C1=C\[C@@H]2[C@H](CC[C@]3(CO3)[C@H](OC(=O)CCC(=O)OCCCCOc3no[n+]([O-])c3S(=O)(=O)c3ccccc3)[C@H]3[C@@H](O)[C@@H](C)C[C@]3(O)C1=O)C2(C)C` the figure was 1.82 µM; with `C/C1=C\[C@@H]2[C@H](CC[C@]3(CO3)[C@H](OC(=O)CCC(=O)NCCOc3no[n+]([O-])c3S(=O)(=O)c3ccccc3)[C@H]3[C@@H](O)[C@@H](C)C[C@]3(O)C1=O)C2(C)C`, 1.43 µM.
Still for that read-out and setting: with `C/C1=C\[C@@H]2[C@H](CC[C@]3(CO3)[C@H](O)[C@H]3[C@@H](O)[C@@H](C)C[C@]3(O)C1=O)C2(C)C` the figure was 25.6 µM; with `C=C1CC[C@H]2[C@@H](/C=C(\C)C(=O)[C@@]3(O)C[C@H](C)[C@H](O)[C@@H]3[C@H]1OC(=O)c1cn(CC)nc1-c1ccc(C)cc1)C2(C)C`, 7.73 µM; with `CCn1cc(C(=O)O[C@@H]2[C@H]3[C@@H](O)[C@@H](C)C[C@]3(O)C(=O)/C(C)=C/[C@@H]3[C@H](CC[C@]24CO4)C3(C)C)c(-c2ccc(F)cc2)n1`, 13.3 µM.
Same read-out and setting: with `C/C1=C\[C@@H]2[C@H](CC[C@]3(CO3)[C@H](OC(=O)c3cn(-c4ccccc4)nc3-c3ccc(Cl)cc3)[C@H]3[C@@H](O)[C@@H](C)C[C@]3(O)C1=O)C2(C)C` the figure was over 20 µM; with `C=C1CC[C@H]2[C@@H](/C=C(\C)C(=O)[C@@]3(O)C[C@H](C)[C@H](O)[C@@H]3[C@H]1OC(=O)c1cn(-c3ccccc3)nc1-c1ccc(C(F)(F)F)cc1)C2(C)C`, 11.2 µM.
Regarding `C=C1CC[C@H]2[C@@H](/C=C(\C)C(=O)[C@@]3(O)C[C@H](C)[C@H](O)[C@@H]3[C@H]1O)C2(C)C`, the IC50 turned out to be 11.1 µM.
Same read-out and setting: as for `CCn1cc(C(=O)O[C@@H]2[C@H]3[C@@H](O)[C@@H](C)C[C@]3(O)C(=O)/C(C)=C/[C@@H]3[C@H](CC[C@]24CO4)C3(C)C)c(-c2ccc(C(F)(F)F)cc2)n1`, the figure is 10.6 µM; as for `C=C1CC[C@H]2[C@@H](/C=C(\C)C(=O)[C@@]3(O)C[C@H](C)[C@H](O)[C@@H]3[C@H]1OC(=O)c1cnc(NC(=O)/C=C/c3ccccc3)s1)C2(C)C`, over 20 µM; as for `C=C1CC[C@H]2[C@@H](/C=C(\C)C(=O)[C@@]3(O)C[C@H](C)[C@H](O)[C@@H]3[C@H]1OC(=O)c1cn(CC)nc1-c1ccc(F)cc1)C2(C)C`, over 20 µM.
Same read-out and setting: as for `C=C1CC[C@H]2[C@@H](/C=C(\C)C(=O)[C@@]3(O)C[C@H](C)[C@H](O)[C@@H]3[C@H]1OC(=O)c1cn(-c3ccccc3)nc1-c1ccc(OC)cc1)C2(C)C`, the figure is over 20 µM; as for `C/C1=C\[C@@H]2[C@H](CC[C@]3(CO3)[C@H](OC(=O)CCC(=O)OCCOCCOc3no[n+]([O-])c3S(=O)(=O)c3ccccc3)[C@H]3[C@@H](O)[C@@H](C)C[C@]3(O)C1=O)C2(C)C`, 3.38 µM; as for `C=C1CC[C@H]2[C@@H](/C=C(\C)C(=O)[C@@]3(O)C[C@H](C)[C@H](O)[C@@H]3[C@H]1OC(=O)c1cnc(NC(=O)C3CCCCC3)s1)C2(C)C`, 5.53 µM.
Regarding `C=C1CC[C@H]2[C@@H](/C=C(\C)C(=O)[C@@]3(O)C[C@H](C)[C@H](O)[C@@H]3[C@H]1OC(=O)c1cn(-c3ccccc3)nc1-c1ccc(N(C)C)cc1)C2(C)C`, the IC50 was over 20 µM.
With `C/C1=C\[C@@H]2[C@H](CC[C@]3(CO3)[C@H](OC(=O)CCN3C(=O)CS/C3=N\c3ccccc3)[C@H]3[C@@H](O)[C@@H](C)C[C@]3(O)C1=O)C2(C)C`, the IC50 was over 20 µM.
Same read-out and setting: as for `C/C1=C\[C@@H]2[C@H](CC[C@]3(CO3)[C@H](OC(=O)CCC(=O)OCC#CCOc3no[n+]([O-])c3S(=O)(=O)c3ccccc3)[C@H]3[C@@H](O)[C@@H](C)C[C@]3(O)C1=O)C2(C)C`, the figure is 1 µM; as for `C/C1=C\[C@@H]2[C@H](CC[C@]3(CO3)[C@H](OC(=O)c3cn(-c4ccccc4)nc3-c3ccc(N(C)C)cc3)[C@H]3[C@@H](O)[C@@H](C)C[C@]3(O)C1=O)C2(C)C`, over 20 µM.
With `C=C1CC[C@H]2[C@@H](/C=C(\C)C(=O)[C@@]3(O)C[C@H](C)[C@H](O)[C@@H]3[C@H]1OC(=O)CCN1C(=O)CS/C1=N\c1ccccc1)C2(C)C`, the IC50 is 8.24 µM.
Take `C/C1=C\[C@@H]2[C@H](CC[C@]3(CO3)[C@H](OC(=O)CCC(=O)OCc3c(-c4ccccc4)no[n+]3[O-])[C@H]3[C@@H](O)[C@@H](C)C[C@]3(O)C1=O)C2(C)C`: the half-maximal inhibitory concentration (IC50) is 9.38 µM.
Still for that read-out and setting: with `C/C1=C\[C@@H]2[C@H](CC[C@]3(CO3)[C@H](OC(=O)c3cn(-c4ccccc4)nc3-c3ccc(F)cc3)[C@H]3[C@@H](O)[C@@H](C)C[C@]3(O)C1=O)C2(C)C` the figure was 10.6 µM.
Same read-out and setting: with `C=C1CC[C@H]2[C@@H](/C=C(\C)C(=O)[C@@]3(O)C[C@H](C)[C@H](O)[C@@H]3[C@H]1OC(=O)c1cnc(NC(=O)c3ccccc3)s1)C2(C)C` the figure was 7.03 µM; with `CCn1cc(C(=O)O[C@@H]2[C@H]3[C@@H](O)[C@@H](C)C[C@]3(O)C(=O)/C(C)=C/[C@@H]3[C@H](CC[C@]24CO4)C3(C)C)c(-c2ccc(Cl)cc2)n1`, 15.7 µM; with `C/C1=C\[C@@H]2[C@H](CC[C@]3(CO3)[C@H](OC(=O)c3cnc(NC(=O)C4CCCCC4)s3)[C@H]3[C@@H](O)[C@@H](C)C[C@]3(O)C1=O)C2(C)C`, 1.49 µM.
Same read-out and setting: as for `C=C1CC[C@H]2[C@@H](/C=C(\C)C(=O)[C@@]3(O)C[C@H](C)[C@H](O)[C@@H]3[C@H]1OC(=O)c1cn(CC)nc1-c1ccc(Cl)cc1)C2(C)C`, the figure is 5.84 µM; as for `C=C1CC[C@H]2[C@@H](/C=C(\C)C(=O)[C@@]3(O)C[C@H](C)[C@H](O)[C@@H]3[C@H]1OC(=O)CCC(=O)NCCOc1no[n+]([O-])c1S(=O)(=O)c1ccccc1)C2(C)C`, 1.19 µM.
Take `C=C1CC[C@H]2[C@@H](/C=C(\C)C(=O)[C@@]3(O)C[C@H](C)[C@H](O)[C@@H]3[C@H]1OC(=O)c1cn(-c3ccccc3)nc1-c1ccc(C)cc1)C2(C)C`: the IC50 is over 20 µM.
As to `C=C1CC[C@H]2[C@@H](/C=C(\C)C(=O)[C@@]3(O)C[C@H](C)[C@H](O)[C@@H]3[C@H]1OC(=O)CCC(=O)OCc1c(-c3ccccc3)no[n+]1[O-])C2(C)C`, the IC50 came out at 5.47 µM.
With `C=C1CC[C@H]2[C@@H](/C=C(\C)C(=O)[C@@]3(O)C[C@H](C)[C@H](O)[C@@H]3[C@H]1OC(=O)c1cn(-c3ccccc3)nc1-c1ccc(Cl)cc1)C2(C)C`, the IC50 was over 20 µM.
Same read-out and setting: as for `C=C1CC[C@H]2[C@@H](/C=C(\C)C(=O)[C@@]3(O)C[C@H](C)[C@H](O)[C@@H]3[C@H]1OC(=O)CCC(=O)OCC#CCOc1no[n+]([O-])c1S(=O)(=O)c1ccccc1)C2(C)C`, the figure is 0.85 µM; as for `C=C1CC[C@H]2[C@@H](/C=C(\C)C(=O)[C@@]3(O)C[C@H](C)[C@H](O)[C@@H]3[C@H]1OC(=O)c1cn(CC)nc1-c1ccc(C(F)(F)F)cc1)C2(C)C`, 7.8 µM; as for `C/C1=C\[C@@H]2[C@H](CC[C@]3(CO3)[C@H](OC(=O)c3cn(-c4ccccc4)nc3-c3ccc(C)cc3)[C@H]3[C@@H](O)[C@@H](C)C[C@]3(O)C1=O)C2(C)C`, over 20 µM.

The subject of the next test is RAW264.7. Briefly: Antiinflammatory activity against mouse RAW264.7 cells assessed as inhibition of LPS-induced ROS generation at […] preincubated for 3 hrs followed by LPS stimulation and measured after 12 hrs by DCFH-DA probe based flow cytometry. The class given is functional, cell-based. As to conditions: time 15.0 hrs. (Flow cytometry measures light scatter and fluorescence of single cells or particles in a stream.)
Take `CC(=O)N[C@@H](CS)C(=O)O`: the inhibition result was “Active”.
